Experimental data: US11753445B2, “Therapeutic peptides” (COHBAR, INC., priority 2016, dated 2023)

Tests used:
[1] = system: 3T3-L1 Adipocytes; assay: Free fatty acid levels in cultured mouse 3T3-L1 adipocytes, isoproterenol stimulated (Example 2); type: cell-based; settings: isoproterenol 1 nM; for Free Fatty Acid Levels in 3T3-L1 Adipocytes Expressed as a Percent of Isoproterenol Control: Percent of Control Value: test peptides 25 μM
Procedure, shortened: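 Release of free fatty acids, read at 540 nm, was stimulated with 1 nM isoproterenol for 3 h in mouse 3T3-L1 adipocytes (12–17 days of differentiation). Cells were pre-exposed to 25 μM peptide for 18–20 h plus 1 h, with peptide kept in during stimulation. Values are background-subtracted and normalised to isoproterenol alone.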

[2] = system: Human Primary Adipocytes; assay: Free fatty acid levels in cultured human primary adipocytes, isoproterenol stimulated (Example 4); type: cell-based; settings: isoproterenol 1 nM; for Free Fatty Acid Levels in Human Primary Adipocytes Expressed as a Percent of Isoproterenol Control: Percent of Control Value: test peptides 25 μM
Description: Human primary adipocytes were seeded at 5,000-100,000 cells per well on 96-well, 48-well, or 24-well plates in Pre-adipocyte Medium (Zen-Bio, Durham, N.C.) and grown to confluence at 37° C. in a humidified atmosphere of 5% CO2/95% air. Two days after confluence, cells were placed in Adipocyte Differentiation Medium (Zen-Bio, Durham, N.C.) and cultured for three additional days at 37° C. in a humidified atmosphere of 5% CO2/95% air. The culture media was then replaced with Adipocyte Maintenance Medium (Zen-Bio) and the cells were maintained for an additional 11-21 days at 37° C. in a humidified atmosphere of 5% CO2/95% air with partial medium replacement every other day. Following 14-24 days of differentiation, test peptides were added at a final concentration of 25 μM and incubated for 18-20 hours in Adipocyte Maintenance Medium at 37° C. in a humidified atmosphere of 5% CO2/95%. After 18-20 hours, the media was exchanged with fresh Adipocyte Maintenance Medium containing test peptides and incubated for 1 h at 37° C. in a humidified atmosphere of 5% CO2/95%. After 1 h media was exchanged with Assay Buffer (Zen-Bio) containing isoproterenol (1 nM) (added to all samples except untreated controls) and test peptides. Cells were incubated for a further 3 hours at 37° C. in a humidified atmosphere of 5% CO2/95%. Free fatty acid concentrations in the media were determined using a Free Fatty Acid Assay Kit (Zen-Bio) according to the manufacturer's instructions using a plate reader (540 nm). Absorbance values were corrected for untreated background and expressed relative to isoproterenol treated cells. Treatment with isoproterenol (1 nM) alone was used as the free fatty acid level stimulatory control. The relative standard deviation of the isoproterenol control was <14%. […] Free fatty acid levels for insulin (100 nM) treatment were <5% of the isoproterenol control value.

[3] = system: Human Primary Adipocytes; assay: Free fatty acid levels in cultured human primary adipocytes, forskolin stimulated (Example 5); type: cell-based; settings: forskolin 1 μM; for Free Fatty Acid Levels in Human Primary Adipocytes Expressed as a Percent of Forskolin Control: Percent of Control Value: test peptides 25 μM
Procedure, shortened: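 Differentiated human primary adipocytes (14–24 days) were exposed to peptides at 25 μM for 18–20 h and 1 h, then stimulated with 1 μM forskolin plus peptide for 3 h at 37 °C. Medium free fatty acids were measured colorimetrically (540 nm), background-corrected and expressed relative to forskolin-only cells.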

[4] = Stability in mouse plasma, peptides 100 uM (Example 14); type: in vitro ADME; settings: mouse plasma 37° C., peptide 100 uM; for remaining at 0.25 h, 100 uM / remaining at 0.5 h, 100 uM / remaining at 1 h, 100 uM / remaining at 2 h, 100 uM / remaining at 3 h, 100 uM: pooled mouse plasma; for remaining at 0.25 h, 100 uM: 15 min, read-out: % Remaining at Each Time Point: 15 min; for remaining at 0.5 h, 100 uM: 30 min, read-out: % Remaining at Each Time Point: 30 min; for remaining at 1 h, 100 uM: 60 min, read-out: % Remaining at Each Time Point: 60 min; for remaining at 2 h, 100 uM: 120 min, read-out: % Remaining at Each Time Point: 120 min; for remaining at 3 h, 100 uM: 180 min, read-out: % Remaining at Each Time Point: 180 min
Description: Peptides (100 uM) were incubated in pooled mouse plasma at 37° C. and samples were removed and immediately analyzed for the concentration of intact peptide by LC/MS/MS over the course of 3 hours. The percent of peptide remaining in plasma at each time point was calculated relative to the initial peak area (Table 12).

[5] = insulin 100 nM, human primary adipocytes

% Remaining at Each Time Point: 0 min [4] [%]	remaining at 0.25 h, 100 uM [4] [%]	remaining at 0.5 h, 100 uM [4] [%]	remaining at 1 h, 100 uM [4] [%]	remaining at 2 h, 100 uM [4] [%]	remaining at 3 h, 100 uM [4] [%]	Substance	Free Fatty Acid Levels in 3T3-L1 Adipocytes Expressed as a Percent of Isoproterenol Control: Percent of Control Value [1] [%]	Free Fatty Acid Levels in Human Primary Adipocytes Expressed as a Percent of Isoproterenol Control: Percent of Control Value [2] [%]	Free Fatty Acid Levels in Human Primary Adipocytes Expressed as a Percent of Forskolin Control: Percent of Control Value [3] [%]	Free fatty acid levels, % of the isoproterenol control value ([1]; insulin 100 nM, 3T3-L1 adipocytes) [%]	Free fatty acid levels, % of the isoproterenol control value [2, 5] [%]	Free fatty acid levels, % of the forskolin control value [3, 5] [%]
100	29.9	31	21.5	6.41	2.13	H-MRWQEMGYIFYPRKLA-OH [compound 21]	45.1	88.9	113			
100	32	14.8	7.58	4.78	1.21	H-MRWQEMGYIFYPRKLR-OH [compound 2]	63.3	107	111			
100	41	29.4	20.5	10	7.45	H-MRWQEMGYIFYPRNLR-OH [compound 213]	48.1	103	90.8			
100	63.3	53.1	48.9	45.3	47.7	H-MRWQEMNYIFYPR-OH [compound 208]	57.9	70.9	90.2			
100	44.5	40.9	41.3	19.8	12.2	H-MRWQEMQYIFYPRALR-OH [compound 219]	38.9	69.4	84.0			
100	56.2	44.8	39.6	34.4	41.4	H-RWQEMNYIFYPR-OH [compound 210]	44.6	75.5	95.2			
						H-RWQEMQYIFYPR-OH [compound 211]	29.9	79.9	90.1			
						Insulin [reference compound]				< 5	< 5	< 8
